Laboratory results published in ChEMBL document CHEMBL5131489, “Linotrins: Omega-3 oxylipins featuring an E,Z,E conjugated triene motif are present in the plant kingdom and alleviate inflammation in LPS-challenged microglial cells” (2022).
The source made the active and inactive calls. The rule behind the calls is not given here.

Tests used:
BV-2 [1] = assay: Antiinflammatory activity against LPS-stimulated C57BL/6 mouse microglial BV-2 cells assessed as reduction in cellular content of IL-1 beta level at 30 umol/L pretreated for 3 hrs followed by LPS stimulation and measured after 24 hrs by AlphaLISA assay; assay type: functional, cell-based; details: dose 30.0 µmol/L, time 27.0 hrs
BV-2 [2] = assay: Antiinflammatory activity against LPS-stimulated C57BL/6 mouse microglial BV-2 cells assessed as reduction in cellular content of IL-6 level at 30 umol/L pretreated for 3 hrs followed by LPS stimulation and measured after 6 hrs by AlphaLISA assay; assay type: functional, cell-based; details: dose 30.0 µmol/L, time 9.0 hrs
BV-2 [3] = assay: Antiinflammatory activity against LPS-stimulated C57BL/6 mouse microglial BV-2 cells assessed as reduction in cellular content of TNF-alpha level at 30 umol/L pretreated for 3 hrs followed by LPS stimulation and measured after 6 hrs by AlphaLISA assay; assay type: functional, cell-based; details: dose 30.0 µmol/L, time 9.0 hrs
BV-2 [4] = assay: Antiinflammatory activity in C57BL/6 mouse microglial BV-2 cells assessed as reduction in LPS-induced TNF-alpha release at 30 umol/L pretreated for 3 hrs followed by LPS stimulation and measured after 24 hrs by AlphaLISA assay; assay type: functional; details: C57BL/6, BV-2, 27 h, dose 30 µmol/L
BV-2 [5] = assay: Antiinflammatory activity in C57BL/6 mouse microglial BV-2 cells assessed as reduction in LPS-induced TNF-alpha release at 30 umol/L pretreated for 3 hrs followed by LPS stimulation and measured after 6 hrs by AlphaLISA assay; assay type: functional; details: C57BL/6, BV-2, 9 h, dose 30 µmol/L
BV-2 [6] = assay: Antiinflammatory activity in C57BL/6 mouse microglial BV-2 cells assessed as reduction in LPS induced IL-1 beta mRNA expression level at 30 umol/L pretreated for 3 hrs followed by LPS stimulation and measured after 24 hrs by qRT-PCR analysis; assay type: functional, cell-based; details: dose 30.0 µmol/L, time 27.0 hrs
BV-2 [7] = assay: Antiinflammatory activity in C57BL/6 mouse microglial BV-2 cells assessed as reduction in LPS-induced IL-6 release at 30 umol/L pretreated for 3 hrs followed by LPS stimulation and measured after 24 hrs by AlphaLISA assay; assay type: functional; details: C57BL/6, BV-2, 27 h, dose 30 µmol/L
BV-2 [8] = assay: Antiinflammatory activity against LPS-stimulated C57BL/6 mouse microglial BV-2 cells assessed as reduction in cellular content of TNF-alpha level at 30 umol/L pretreated for 3 hrs followed by LPS stimulation and measured after 24 hrs by AlphaLISA assay; assay type: functional, cell-based; details: dose 30.0 µmol/L, time 27.0 hrs
BV-2 [9] = assay: Antiinflammatory activity in C57BL/6 mouse microglial BV-2 cells assessed as reduction in LPS-induced IL-6 release at 30 umol/L pretreated for 3 hrs followed by LPS stimulation and measured after 6 hrs by AlphaLISA assay; assay type: functional; details: C57BL/6, BV-2, 9 h, dose 30 µmol/L
BV-2 [10] = assay: Antiinflammatory activity against LPS-stimulated C57BL/6 mouse microglial BV-2 cells assessed as reduction in cellular content of IL-6 level at 30 umol/L pretreated for 3 hrs followed by LPS stimulation and measured after 24 hrs by AlphaLISA assay; assay type: functional, cell-based; details: dose 30.0 µmol/L, time 27.0 hrs
BV-2 [11] = assay: Antiinflammatory activity in C57BL/6 mouse microglial BV-2 cells assessed as reduction in LPS induced IL-6 mRNA expression level at 30 umol/L pretreated for 3 hrs followed by LPS stimulation and measured after 24 hrs by qRT-PCR analysis; assay type: functional, cell-based; details: dose 30.0 µmol/L, time 27.0 hrs

SMILES: CCC(O)/C=C/C=C\C=C\[C@H](O)CCCCCCCC(=O)O (mixture of isomers)
- Activity (BV-2 [1]): Active
- Activity (BV-2 [2]): Active
- Activity (BV-2 [3]): Active
- inhibition at 30 µM (BV-2 [4]): 22.7%
- inhibition at 30 µM (BV-2 [5]): 14.1%
- Activity (BV-2 [6]): Active
- inhibition at 30 µM (BV-2 [7]): 30.5%
- Activity (BV-2 [8]): Active
- inhibition at 30 µM (BV-2 [9]): 20.8%
- Activity (BV-2 [10]): Active
- Activity (BV-2 [11]): Active
